Results published in patent US6740679B1, “Nutritional supplement or pharmaceutical preparation comprising triglycerides with seven-carbon fatty acid” (Baylor University Medical Center, priority 1999, dated 2004).
Entries after “also recorded” stand apart in the source; their conditions may differ. Blank lines part the entries; values can stand above or below the compound they belong to.

Key:
[1] = test system: fibroblasts with severe carnitine/acylcarnitine translocase deficiency (TRANSLOCASE); experiment: Tandem mass spectrometry assay of labeled fatty acid oxidation in cultured cells; assay type: cell-based, human; details: translocase-deficient fibroblasts; for accumulation of labeled acylcarnitine of the precursor: m/z417 for D3-C16, m/z305 for D3-C8, m/z319 for D3-C9
Experimental: (§1) Fibroblasts taken from the deceased sibling and amniocytes taken from the fetus were both evaluated for fatty acid metabolism of n-heptanoic acid (C7) using a tandem mass spectrometry assay previously reported. (Yang, et al. 1998. “Identification of four novel mutations in patients with carnitine palmitoyltransferase II (CPT II) deficiency,” Mol Genet Metab 64:229-236). […] Each cell line was incubated separately with 7-^2H3-heptanoate (D3-C7), 8-^2H3-octanoate (D3-C8), 9-^2H3-nonanoate (D3-C9), and 16-^2H3-palmitate (D3-C16).
(§2) The normal cell line and eleven abnormal cell lines were analyzed in groups of three. For quantitative purposes, labeled internal standards were included in each analysis and are designated as “IS” on the first profile in each group. The mass numbers for these standards are: m/z420 (^2H6-palmitate-C16), m/z308 (^2H6-octanoate-C8), m/z269 (^2H9-isovaleric-C5) , and m/z237 (^2H5-propionate-C3), wherein m/z is the mass:charge ratio.
(§3) This relative ammount of m/z235 (^2H3-propionate-C3) is compared to the level of the internal standards at m/z269 (^2H9-isovaleric-C5) and m/z237 (^2H5-propionate-C3).

[2] = test system: carnitine palmitoyltransferase II (CPT II) deficient fibroblasts; experiment: Tandem mass spectrometry assay of labeled fatty acid oxidation; assay type: cell-based, human; details: for accumulation of labeled acylcarnitine of the precursor: m/z417 for D3-C16, m/z319 for D3-C9
Experimental: as §1, §2, §3

[3] = test system: long-chain L-3-hydroxy-acyl-CoA dehydrogenase (LCHAD) deficient fibroblasts; experiment: as above; assay type: cell-based, human
Experimental: as §1, §2, §3

fasting rats = details: rats fed the triglyceride; Anderson et al. 1975; cited from earlier work
normal fibroblasts = experiment: Tandem mass spectrometry assay of labeled fatty acid oxidation; assay type: cell-based, human
Text: Fibroblasts taken from the deceased sibling and amniocytes taken from the fetus were both evaluated for fatty acid metabolism of n-heptanoic acid (C7) using a tandem mass spectrometry assay previously reported. (Yang, et al. 1998. “Identification of four novel mutations in patients with carnitine palmitoyltransferase II (CPT II) deficiency,” Mol Genet Metab 64:229-236). The mass spectrometry results are presented for palmitate in FIG. 3A and triheptanoin in FIG. 3B for the fibroblasts taken from the deceased sibling, and for palmitate in FIG. 4A and triheptanoin in FIG. 4B for the amniocytes taken from the fetus. […]
The normal cell line and eleven abnormal cell lines were analyzed in groups of three. For quantitative purposes, labeled internal standards were included in each analysis and are designated as “IS” on the first profile in each group. […]

[4] = test system: VLCAD-H (hypoglycemic form of very-long-chain acyl-CoA dehydrogenase) deficient fibroblasts; experiment: as above; assay type: cell-based, human
Experimental: as §1, §2, §3

[5] = test system: VLCAD-C (cardiac form of very-long-chain acyl-CoA dehydrogenase) deficient fibroblasts; experiment: as above; assay type: cell-based, human
Experimental: as §1, §2, §3

[6] = test system: medium-chain acyl-CoA dehydrogenase (MCAD) deficient fibroblasts; experiment: as above; assay type: cell-based, human; details: for accumulation of labeled acylcarnitine: C8 m/z305.3 from D3-C16, m/z305 for D3-C8, m/z291 heptanoylcarnitine for D3-C7
Experimental: as §1, §2, §3

[7] = test system: electron transfer flavoprotein QO dehydrogenase-severe (ETF-DH severe) deficient fibroblasts; experiment: as above; assay type: cell-based, human
Experimental: as §1, §2, §3

[8] = test system: carnitine palmitoyltransferase I (CPT I) deficient fibroblasts; experiment: as above; assay type: cell-based, human
Experimental: as §1, §2, §3

[9] = test system: short-chain acyl-CoA dehydrogenase (SCAD) deficient fibroblasts; experiment: as above; assay type: cell-based, human
Experimental: as §1, §2, §3

[10] = test system: electron transfer flavoprotein QO dehydrogenase-mild (ETF-DH mild) deficient fibroblasts; experiment: as above; assay type: cell-based, human
Experimental: as §1, §2, §3

[11] = test system: mitochondrial trifunctional protein (TRIFUNCTIONAL) deficient fibroblasts; experiment: as above; assay type: cell-based, human
Experimental: as §1, §2, §3

[12] = test system: amniocytes from a fetus with severe translocase deficiency; experiment: Tandem mass spectrometry assay of fatty acid oxidation in amniocytes; assay type: cell-based, human; details: translocase-deficient amniocytes
Text: Because a sibling had died at the age of four days from severe translocase deficiency, amniocytes obtained from a fetus were examined for competency in fatty acid metabolism. […] Fibroblasts taken from the deceased sibling and amniocytes taken from the fetus were both evaluated for fatty acid metabolism of n-heptanoic acid (C7) using a tandem mass spectrometry assay previously reported. (Yang, et al. 1998. “Identification of four novel mutations in patients with carnitine palmitoyltransferase II (CPT II) deficiency,” Mol Genet Metab 64:229-236). […]

accumulation of labeled acylcarnitine of the precursor [2]: an increase was observed at m/z319 | accumulation of labeled acylcarnitine of the precursor ([3]; m/z319 for D3-C9): an increase was observed at m/z319
Compound: [2H]C([2H])([2H])CCCCCCCC(=O)O [D3-C9, 9-^2H3-nonanoate]
accumulation of labeled acylcarnitine of the precursor [1]: an increase was observed at m/z319

accumulation of labeled acylcarnitine [6]: relative accumulation of m/z 305
Compound: [2H]C([2H])([2H])CCCCCCC(=O)O [D3-C8, 8-^2H3-octanoate]
accumulation of labeled acylcarnitine of the precursor [1]: relative accumulation of m/z 305

Continued, compound first:

Compound: CCCCCCCCCCC(=O)OCC(COC(=O)CCCCCCCCCC)OC(=O)CCCCCCCCCC [triundecanoin]
blood glucose levels during prolonged fasting (fasting rats): maintain nonfasting blood glucose levels during prolonged fasting

Compound: [2H]C([2H])([2H])CCCCCCCCCCCCCCC(=O)O [D3-C16, 16-^2H3-palmitate]
oxidation of the fatty acid (labeled acylcarnitine profile) [1]: no oxidation occurs | accumulation of labeled acylcarnitine of the precursor [1]: large quantities of labeled palmitoylcarnitine | profile of labeled acylcarnitine intermediates (normal fibroblasts): from C16 down to and including C4 | profile of labeled acylcarnitines [4]: abnormal profiles of labeled acylcarnitines | profile of labeled acylcarnitines [5]: abnormal profiles of labeled acylcarnitines | oxidation of the fatty acid (labeled acylcarnitine profile) [6]: oxidation clearly proceed down to the level of C8 | accumulation of labeled acylcarnitine [6]: marked accumulation | oxidation of the fatty acid (labeled acylcarnitine profile) [2]: no oxidation occurs | accumulation of labeled acylcarnitine of the precursor [2]: large quantities of labeled palmitoylcarnitine | oxidation of the fatty acid (labeled acylcarnitine profile) [7]: abnormal profiles of labeled acylcarnitines | amount of labeled palmitoylcarnitine (m/z417) [8]: minimal amount | oxidation of the fatty acid (labeled acylcarnitine profile) [8]: virtually no oxidation occurs | profile of labeled acylcarnitines [3]: abnormal profiles of labeled acylcarnitines | oxidation of the fatty acid (labeled acylcarnitine profile) [9]: oxidation stops at m/z249 | oxidation of the fatty acid (labeled acylcarnitine profile) [10]: abnormal profiles of labeled acylcarnitines | profile of labeled acylcarnitines [11]: abnormal profiles of labeled acylcarnitines

Compound: [2H]C([2H])([2H])CCCCCC(=O)O [D3-C7, 7-^2H3-heptanoate]
relative amount of 2H3-propionate-C3 (m/z235) produced ([1]; compared to normal cells): either comparable to or in excess of the amount seen in normal cells | relative amount of 2H3-propionate-C3 (m/z235) produced ([4]; compared to normal cells): either comparable to or in excess of the amount seen in normal cells | relative amount of 2H3-propionate-C3 (m/z235) produced ([5]; compared to normal cells): either comparable to or in excess of the amount seen in normal cells | accumulation of labeled acylcarnitine [6]: markedly increased | relative amount of 2H3-propionate-C3 (m/z235) produced ([2]; compared to normal cells): either comparable to or in excess of the amount seen in normal cells | oxidation of the fatty acid (labeled acylcarnitine profile) [7]: no oxidation of labeled 7-^2H3-heptanoate was observed | relative amount of 2H3-propionate-C3 (m/z235) produced ([8]; compared to normal cells): either comparable to or in excess of the amount seen in normal cells | relative amount of 2H3-propionate-C3 (m/z235) produced ([3]; compared to normal cells): either comparable to or in excess of the amount seen in normal cells | relative amount of 2H3-propionate-C3 (m/z235) produced ([9]; compared to normal cells): either comparable to or in excess of the amount seen in normal cells | oxidation of the fatty acid (labeled acylcarnitine profile) [10]: no oxidation of labeled 7-^2H3-heptanoate was observed | relative amount of 2H3-propionate-C3 (m/z235) produced ([11]; compared to normal cells): either comparable to or in excess of the amount seen in normal cells

Compound: CCCCCCC(=O)O [n-heptanoic acid]
oxidation of the fatty acid (labeled acylcarnitine profile) [1]: successful oxidation; also recorded: readily oxidized to propionyl-CoA | oxidation of the fatty acid [12]: readily oxidized to propionyl-CoA
